Test results taken from US6185453A, “Iontophoretic delivery of integrin inhibitors” (DuPont Pharmaceuticals Company, priority 1997, dated 2001).
“And” between values parts separate entries of the source, which are not always exact repeats. Identical values can stand only once. Counter-ions that a name gives are not always drawn.

Columns and labels:
[1] = In vitro excised porcine skin iontophoretic delivery (flow-through diffusion cell); type: in vitro ADME; conditions: for Dose Delivered: 18 hours iontophoresis, 2 cm^2 patch
Procedure: The iontophoretic delivery of a representative GPIIb/IIIa inhibitor compound, Compound A, was carried out in a flow-through diffusion cell in vitro excised skin delivery system. The transdermal patch design used in these studies included an absorbent drug reservoir with 2 cm^2 active area of skin contact and a volume of 0.3 mL. The drug reservoir compartment was separated from the electrode compartment by a semi-permeable membrane with a molecular weight cutoff of 100. The electrode compartment included a silver […] and a cation exchange media in a hydrogel matrix. The drug reservoir compartment was filled with dosing solution just before application to the skin. A silver-silver chloride mesh return cathode was located upstream of the polycarbonate flow-through cells. Freshly dermatomed (1 mm) porcine skin was mounted in the cells on a porous support polyethylene. The patches included an absorbent reservoir in contact with silver and silver chloride electrodes. They were dosed with aqueous solutions of the drug and then placed on top of the excised skin. The patches were secured by a spring loaded mechanism which maintained even pressure over the patch. The cells were "perfused" by means of a peristaltic pump which pulls receiver solution through them. Effluents from the cells were collected with a fraction collector. Flow rates were typically 0.25 mL/min. The receiver solution was an isotonic pH 7.4 buffered saline solution containing 10 mM HEPES, 100 mM NaCl, PEG 400, and a surfactant, Pluronic P-103. Iontophoresis current was provided by a constant current power supplies, and the applied currents and cell voltages were recorded with a data logger. The flux profile vs. time and the cumulative dose delivered with 18 hours of iontophoresis were determined. This was followed by 3 hours where no current was applied. Concentrations of Compound A were determined using a radiolabeled marker or by HPLC. A study was performed using applied currents of 0-800 μA, and concentrations of Compound A in the patch of 50 or 100 mg/mL. Additional studies were performed using lower applied currents, lower concentrations of Compound A in the patch, and dosing solutions containing various concentrations of NaCl. […] At 100 μA the delivery rate of Compound A was approximately 10 μg/hr for the 2 cm^2 surface area, which was also within the targeted range. An alternative patch design, a monolithic patch rather than the membrane separated patch, was also tested. This patch is composed of two layers of absorbent material between which is sandwiched a silver anode.

[2] = In vivo swine iontophoretic delivery / IV infusion, plasma concentrations (LC-MS); design: species or system Yorkshire swine; conditions: for in vivo delivery rate: 10 mg/mL, by comparison with IV infusion of Compound B
Excerpt: In each experiment, the patches were loaded with drug solution immediately before application to the skin of the animals. Unanesthetized Yorkshire swine with weights from about 20 to 35 kg were used. The skin sites receiving the patches were wiped clean with moist gauze pads. Patches were overwrapped with an adhesive, elastic wrap to hold the patches in place. Separate constant current power supplies were provided for each iontophoresis patch system. Current and voltage readings were made and recorded on-board dataloggers. Blood samples were withdrawn from the vena cava through an IV catheter into VACUTAINER™ blood collection tubes containing EDTA. After gentle mixing, the tubes were centrifuged to separate the plasma, which transferred to clean polypropylene tubes and frozen on dry ice. Frozen samples were stored at -80° C. until assayed.
Compound B concentrations in plasma were determined by LC-MS. The patches used were of the monolithic design described above, and having a 2 cm^2 skin coverage area. Patches were filled with solutions containing 10-20 mg/mL Compound A and 154 mM NaCl. […], plasma concentrations of Compound B increased for the first 5-8 hours of dosing and then reached steady-state.Steady-state plasma concentrations of approximately 1-2 ng/mL were attained. After an intravenous infusion of Compound B at 10 μg/hr, steady-state plasma concentrations of Compound B were also approximately 1-2 ng/mL. Therefore, the transdermal delivery rate at steady-state was approximately 10 μg/hr.
Pigs were also dosed with patches containing 10 mg/mL of Compound A, using currents of 50 and 100 μA. In these studies four patches were used for each pig, for a total skin coverage area of 8 cm^2. […] Actual in vivo delivery rates were estimated by comparison with plasma concentrations after intravenous infusion of Compound B. The 50 μA current delivered Compound A at approximately 25 μg/hr, and the 100 μA current delivered Compound A at approximately 40 μg/hr.

[3] = iontophoresis of 10 mg/mL Compound A, 50 and 100 μA, four patches (8 cm^2)

SMILES: CCCCOC(=O)N[C@@H](CNC(=O)C[C@H]1CC(c2ccc(C(=N)N)cc2)=NO1)C(=O)OC [Compound A, methyl-N^3-[2-{3-(4-formamidinophenyl)-isoxazolin-5(R)-yl}-acetyl]-N^2-(n-butyloxycarbonyl)-2,3-(S)-diaminopropionate methanesulfonate salt]
- skin permeation [1]: very low skin permeation
- Dose Delivered ([1]; 0 μA, 100 mg/mL Compound A (as salt), methanesulfonate salt): 0.2 mg and 0.1 mg
- transdermal delivery rates versus applied current ([1]; 10 mg/mL Compound A, 154 mM NaCl, 0, 25, 50, and 100 μA): proportional to the applied current
- time to maximum delivery ([1]; 50 or 100 mg/mL Compound A, iontophoresis): about 5 hours
- delivery rate ([1]; 100 μA, 10 mg/mL Compound A, 154 mM NaCl, 2 cm^2): approximately 10 μg/hr
- Dose Delivered ([1]; 200 μA, 100 mg/mL Compound A (as salt), methanesulfonate salt): 1.2 mg and 1.1 mg and 1.0 mg
- Dose Delivered ([1]; 400 μA, 50 mg/mL Compound A (as salt)): 1.1 mg
- Dose Delivered ([1]; 800 μA, 50 mg/mL Compound A (as salt), methanesulfonate salt): 2.1 mg and 2.3 mg
- variability in delivery from skin to skin ([1]; FIG. 2, 10 mg/mL, 154 mM NaCl, 50 μA): extremely low
- in vitro delivery versus current ([1]; FIG. 3, 10 mg/mL, 9 mg/mL NaCl, 0-100 μA): proportional to increase in current
- consistency of delivery ([1]; for any specified drug concentration and applied current): generally very consistent
- transdermal delivery ([1]; in the presence of the applied current): greatly increased
- delivery rates ([1]; when the current was turned off): very low levels
- dosing rates ([1]; within the target range, 50 or 100 mg/mL Compound A): 5 to 250 µg/h
- transdermal delivery rate at steady-state ([2]; 20 mg/mL Compound A, 100 μA, 2 cm^2, by comparison with IV infusion): approximately 10 μg/hr
- blood levels, iontophoresis (FIG. 5) compared with constant IV infusion of Compound B (FIG. 4) ([2]; 20 mg/mL, 154 mM NaCl, 200 μA, 2 cm^2 vs IV 10 μg/h): similar
- in vivo delivery rate ([2]; 50 μA, four patches (8 cm^2)): approximately 25 μg/hr
- in vivo delivery rate ([2]; 100 μA, four patches (8 cm^2)): approximately 40 μg/hr
- variability in plasma levels with iontophoresis ([2]; FIG. 5, 20 mg/mL, 154 mM NaCl, 200 μA, 2 cm^2): extremely low
- in vivo conversion to acid form (Compound B) ([2]; in vivo): rapidly converted to its acid form

SMILES: CCCCOC(=O)N[C@@H](CNC(=O)C[C@H]1CC(c2ccc(C(=N)N)cc2)=NO1)C(=O)O [Compound B, N^3-[2-{3-(4-formamidinophenyl)-isoxazolin-5(R)-yl}-acetyl]-N^2-(n-butyloxycarbonyl)-2,3-(S)-diaminopropanoic acid]
- steady-state plasma concentrations ([2]; approximately, intravenous infusion of Compound B at 10 μg/hr): 1 to 2 ng/mL
- period of plasma concentration increase before apparent steady-state [2, 3]: first several hours
- plasma concentrations during 24 hours of iontophoretic dosing [2, 3]: fairly constant
- plasma concentrations versus applied current [2, 3]: proportional to the applied current
- time during which plasma concentrations increased before steady-state ([2]; iontophoresis of 20 mg/mL Compound A, 100 μA, 2 cm^2): 5 to 8 h
